According to ChEMBL document CHEMBL1201862, “PubChem BioAssay data set” (2004):
Active and inactive are the calls of the source.

Columns and labels:
Cytochrome P450 2D6 = Cytochrome P450 2D6 (Homo sapiens, UniProt P10635);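 also: CYP2D6 member of a cytochrome P450 panel assay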
Protein skinhead-1 = biological target: T1, Protein skinhead-1 (Caenorhabditis elegans, UniProt P34707); type: functional
T1 sequence (P34707 whole entry): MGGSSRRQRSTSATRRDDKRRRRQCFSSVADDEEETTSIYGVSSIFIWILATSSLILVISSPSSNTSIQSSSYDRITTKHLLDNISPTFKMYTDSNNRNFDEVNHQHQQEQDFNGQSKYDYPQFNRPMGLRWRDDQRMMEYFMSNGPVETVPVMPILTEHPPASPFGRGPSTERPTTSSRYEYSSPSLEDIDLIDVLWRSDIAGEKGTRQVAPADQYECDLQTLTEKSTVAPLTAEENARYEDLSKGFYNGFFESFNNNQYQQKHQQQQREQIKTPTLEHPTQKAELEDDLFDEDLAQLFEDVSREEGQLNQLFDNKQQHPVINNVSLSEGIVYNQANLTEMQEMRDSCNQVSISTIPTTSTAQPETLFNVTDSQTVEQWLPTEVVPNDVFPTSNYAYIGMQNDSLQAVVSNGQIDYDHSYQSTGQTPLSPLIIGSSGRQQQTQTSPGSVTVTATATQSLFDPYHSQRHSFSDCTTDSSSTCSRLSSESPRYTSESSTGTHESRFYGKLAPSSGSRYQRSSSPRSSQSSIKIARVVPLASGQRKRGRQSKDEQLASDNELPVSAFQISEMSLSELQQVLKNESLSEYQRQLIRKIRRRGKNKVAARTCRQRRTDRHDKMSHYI

Cytochrome P450 1A2 = biological target: T2, Cytochrome P450 1A2 (Homo sapiens, UniProt P05177);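 also: PubChem cytochrome P450 panel assay, CYP1A2 panel member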
T2 sequence (P05177 whole entry): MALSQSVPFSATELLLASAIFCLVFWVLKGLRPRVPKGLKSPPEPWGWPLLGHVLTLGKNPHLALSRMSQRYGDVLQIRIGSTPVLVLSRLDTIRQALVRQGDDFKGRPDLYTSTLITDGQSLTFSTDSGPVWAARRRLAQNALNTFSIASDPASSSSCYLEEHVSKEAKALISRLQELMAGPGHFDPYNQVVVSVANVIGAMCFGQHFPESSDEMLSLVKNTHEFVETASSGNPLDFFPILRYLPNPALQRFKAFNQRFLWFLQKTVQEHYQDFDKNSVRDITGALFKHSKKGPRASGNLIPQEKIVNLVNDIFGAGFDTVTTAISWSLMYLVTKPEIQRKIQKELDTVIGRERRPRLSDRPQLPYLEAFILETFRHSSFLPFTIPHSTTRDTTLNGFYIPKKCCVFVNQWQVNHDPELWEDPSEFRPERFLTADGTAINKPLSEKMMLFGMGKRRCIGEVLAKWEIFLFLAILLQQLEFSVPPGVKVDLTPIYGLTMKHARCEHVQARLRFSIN

[1] = system: Streptococcus sp. 'group A'; assay: growth inhibition of control SK(-) GAS strain, dose response, counter-screen for streptokinase expression inhibitor project, luminescence, kanamycin, BacTiterGlo, confirmation (AID 1900); type: functional, organism-based
Streptokinase A = biological target: T3, Streptokinase A (Streptococcus pyogenes serotype M1, UniProt P10520); assay: S. pyogenes streptokinase expression inhibitors, potency, dose response, plasminogen activation absorbance, OD405 (AID 1914); type: functional, Streptococcus pyogenes M1 GAS;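 also: secreted streptokinase activity via plasminogen activation per viability signal from cell pellet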
T3 sequence (P10520 whole entry): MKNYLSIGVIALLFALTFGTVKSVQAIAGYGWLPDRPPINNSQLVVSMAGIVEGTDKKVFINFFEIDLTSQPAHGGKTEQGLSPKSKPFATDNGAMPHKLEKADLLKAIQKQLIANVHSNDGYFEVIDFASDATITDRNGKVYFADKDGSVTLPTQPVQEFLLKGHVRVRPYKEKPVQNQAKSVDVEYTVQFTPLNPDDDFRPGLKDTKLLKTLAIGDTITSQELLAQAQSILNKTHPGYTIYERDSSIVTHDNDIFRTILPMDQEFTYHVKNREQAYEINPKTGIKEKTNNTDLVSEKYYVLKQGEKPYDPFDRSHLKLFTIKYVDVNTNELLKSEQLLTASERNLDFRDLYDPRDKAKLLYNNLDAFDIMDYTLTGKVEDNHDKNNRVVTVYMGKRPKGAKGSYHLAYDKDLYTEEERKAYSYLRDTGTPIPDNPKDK

Streptococcus = assay: Group A Streptococcus viability loss, dose response, counter-screen for streptokinase expression inhibitor project, luminescence, BacTiterGlo (AID 1915); type: functional, organism-based;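 also: potency for reduction of bacterial viability or growth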
[2] = Luminescence Cell-Based Dose Retest to Confirm Inhibitors of Cancer Stem Cells. [Related pubchem assays (depositor defined):AID2717, AID2721]; type: functional; conditions: Homo sapiens
INS1 = assay: beta cell apoptosis inhibitors, cytokine rescue, dose response, luminescence, retest (AID 449756); type: functional, cell-based; conditions: Rattus norvegicus;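 also: cell death triggered by IL-1 beta plus TNF-alpha plus IFN-gamma mixture; protective hits raise ATP signal compared with cytokine alone wells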
[3] = biological target: Heat shock protein HSP 90-alpha (Homo sapiens, UniProt P07900); type: functional, organism-based
[4] = inhibitors of intracellular T. cruzi replication, confirmation, NIH3T3 host cells, beta-gal luminescence (AID 2044); type: functional, cell-based;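 also: intracellular parasites grown in NIH/3T3 mouse fibroblasts as host cells; luminescent beta-galactosidase reporter signal from transgenic T. cruzi replicating inside host cells; inhibitors lower the luminescence signal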
[5] = cytotoxicity toward NIH3T3 fibroblasts, dose response, counter-screen, cell-based, ATP luminescence, mouse fibroblasts (AID 2010); type: functional;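 also: cells exposed to compound for about 90 hours before reading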
Cytochrome P450 2C19 = Cytochrome P450 2C19 (Homo sapiens, UniProt P33261); assay: Cytochrome panel assay with activity outcomes. Panel member name: p450-cyp2c19 Compounds with AC50 equal or less than 10 uM are considered active; type: functional
Sequence of Cytochrome P450 2C19 (P33261 whole entry): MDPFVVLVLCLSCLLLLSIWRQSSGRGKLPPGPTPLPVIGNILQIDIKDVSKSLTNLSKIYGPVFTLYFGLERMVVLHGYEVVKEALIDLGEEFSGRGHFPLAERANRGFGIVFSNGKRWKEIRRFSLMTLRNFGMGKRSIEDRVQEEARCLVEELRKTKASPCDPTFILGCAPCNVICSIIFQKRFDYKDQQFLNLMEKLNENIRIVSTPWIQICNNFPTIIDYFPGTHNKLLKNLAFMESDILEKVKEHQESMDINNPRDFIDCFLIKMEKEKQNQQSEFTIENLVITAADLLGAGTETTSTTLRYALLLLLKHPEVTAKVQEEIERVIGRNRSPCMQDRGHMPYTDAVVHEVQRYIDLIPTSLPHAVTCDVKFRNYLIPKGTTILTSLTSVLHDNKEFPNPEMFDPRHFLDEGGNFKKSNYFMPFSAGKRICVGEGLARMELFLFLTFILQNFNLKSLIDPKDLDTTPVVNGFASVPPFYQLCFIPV

[6] = biological target: T4, Corticotropin-releasing factor receptor 2/Corticotropin-releasing factor-binding protein (Homo sapiens, UniProt P24387+Q13324); assay: activators of CRF receptor 2 with binding protein – uHTS hits, confirmation (AID 602473); type: functional; conditions: read-out: EC50_Mean
T4 sequence (Q13324 whole entry): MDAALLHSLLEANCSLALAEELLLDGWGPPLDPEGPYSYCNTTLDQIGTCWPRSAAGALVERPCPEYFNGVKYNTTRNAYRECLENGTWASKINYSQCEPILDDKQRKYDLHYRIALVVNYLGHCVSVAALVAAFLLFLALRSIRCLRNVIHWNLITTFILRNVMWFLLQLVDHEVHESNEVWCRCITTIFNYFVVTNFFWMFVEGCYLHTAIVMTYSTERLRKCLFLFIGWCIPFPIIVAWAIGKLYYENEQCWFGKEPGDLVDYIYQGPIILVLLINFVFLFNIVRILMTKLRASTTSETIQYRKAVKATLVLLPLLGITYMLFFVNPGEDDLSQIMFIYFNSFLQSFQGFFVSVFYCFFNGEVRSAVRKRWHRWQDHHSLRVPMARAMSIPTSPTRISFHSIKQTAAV
T4 sequence (P24387 whole entry): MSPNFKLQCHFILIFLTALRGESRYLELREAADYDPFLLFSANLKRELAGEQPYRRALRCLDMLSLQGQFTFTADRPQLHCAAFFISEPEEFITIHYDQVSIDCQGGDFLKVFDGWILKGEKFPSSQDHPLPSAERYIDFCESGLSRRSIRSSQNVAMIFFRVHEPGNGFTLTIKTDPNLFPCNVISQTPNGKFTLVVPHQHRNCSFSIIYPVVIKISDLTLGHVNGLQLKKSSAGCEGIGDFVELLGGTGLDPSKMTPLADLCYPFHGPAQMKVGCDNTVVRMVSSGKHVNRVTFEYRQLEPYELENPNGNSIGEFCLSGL

Cytochrome P450 3A4 = Cytochrome P450 3A4 (Homo sapiens, UniProt P08684);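 also: CYP3A4 tested as one member of a cytochrome P450 panel screen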
Sequence of Cytochrome P450 3A4 (P08684 whole entry): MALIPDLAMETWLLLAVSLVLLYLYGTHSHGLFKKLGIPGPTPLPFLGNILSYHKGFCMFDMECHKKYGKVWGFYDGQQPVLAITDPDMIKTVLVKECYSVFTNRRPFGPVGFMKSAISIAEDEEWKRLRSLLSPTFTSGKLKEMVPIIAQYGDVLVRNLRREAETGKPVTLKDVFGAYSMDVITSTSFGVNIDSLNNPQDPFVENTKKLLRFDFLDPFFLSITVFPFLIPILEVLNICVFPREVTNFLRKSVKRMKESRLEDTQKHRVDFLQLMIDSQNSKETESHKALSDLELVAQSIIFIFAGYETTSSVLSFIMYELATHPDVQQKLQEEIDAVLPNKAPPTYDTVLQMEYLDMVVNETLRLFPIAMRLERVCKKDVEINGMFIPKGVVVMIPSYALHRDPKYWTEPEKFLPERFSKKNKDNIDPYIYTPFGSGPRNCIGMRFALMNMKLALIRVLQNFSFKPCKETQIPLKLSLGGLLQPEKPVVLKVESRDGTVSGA

Cytochrome P450 2C9 = Cytochrome P450 2C9 (Homo sapiens, UniProt P11712)
Sequence of Cytochrome P450 2C9 (P11712 whole entry): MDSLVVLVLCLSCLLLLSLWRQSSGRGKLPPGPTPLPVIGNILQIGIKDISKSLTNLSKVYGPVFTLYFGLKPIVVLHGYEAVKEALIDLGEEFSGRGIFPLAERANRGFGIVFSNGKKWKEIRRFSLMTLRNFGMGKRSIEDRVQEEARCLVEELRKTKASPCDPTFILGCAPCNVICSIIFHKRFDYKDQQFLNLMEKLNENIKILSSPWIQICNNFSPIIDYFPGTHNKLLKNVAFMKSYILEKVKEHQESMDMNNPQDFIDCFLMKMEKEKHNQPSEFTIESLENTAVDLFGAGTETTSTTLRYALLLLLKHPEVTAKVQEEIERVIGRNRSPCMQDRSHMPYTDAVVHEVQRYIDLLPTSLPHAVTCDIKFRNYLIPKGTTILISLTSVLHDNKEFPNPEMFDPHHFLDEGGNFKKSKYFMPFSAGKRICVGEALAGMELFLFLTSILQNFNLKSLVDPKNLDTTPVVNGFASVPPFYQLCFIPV

Sequence of Cytochrome P450 2D6 (P10635 whole entry): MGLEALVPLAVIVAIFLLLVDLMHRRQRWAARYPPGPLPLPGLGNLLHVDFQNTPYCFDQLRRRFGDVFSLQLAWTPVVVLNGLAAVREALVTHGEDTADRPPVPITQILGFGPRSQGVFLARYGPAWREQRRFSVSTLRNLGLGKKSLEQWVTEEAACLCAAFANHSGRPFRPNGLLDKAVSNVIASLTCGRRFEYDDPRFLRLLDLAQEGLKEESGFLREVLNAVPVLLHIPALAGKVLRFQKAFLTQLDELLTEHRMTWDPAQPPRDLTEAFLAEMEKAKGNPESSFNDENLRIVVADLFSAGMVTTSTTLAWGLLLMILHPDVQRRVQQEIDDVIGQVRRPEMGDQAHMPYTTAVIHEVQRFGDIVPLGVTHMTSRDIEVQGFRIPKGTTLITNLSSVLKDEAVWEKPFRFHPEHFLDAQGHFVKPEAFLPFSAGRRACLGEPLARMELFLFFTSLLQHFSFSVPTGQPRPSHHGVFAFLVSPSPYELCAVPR

Compound: CCOc1ccc2nc(O)c(CN(CCc3ccccc3)C(=O)N3CCCC3)cc2c1
- AC50 (Cytochrome P450 2D6): 22.4 µM (inconclusive)

Compound: c1csc(-c2nc(-c3ccncc3)no2)c1
- IC50 (Protein skinhead-1): 22.2 µM (active)

Compound: COc1ccc(CC(=O)Nc2cccc(-c3nnc(-c4ccco4)o3)c2)cc1
- AC50 (Cytochrome P450 2D6): 20 µM (inconclusive)
- AC50 (Cytochrome P450 1A2): 15.8 µM (inconclusive)

Compound: O=C(Nc1ccc(Br)c(C(F)(F)F)c1)c1ccc(C(F)(F)F)cc1
- EC50 [1]: 1.74 µM (active)
- EC50 (Streptokinase A): > 150 µM (not active)
- EC50 (Streptococcus): 3.98 µM (active)
- AC50 [2]: 2.06 µM (active)
- AC50 (INS1): 8.01 µM (active)

Compound: CCOC(=O)c1cccc(C2=CC(=O)C[C@H](c3ccc(Cl)cc3)C2)c1
- AC50 [2]: 0.885 µM (active)

Compound: CC(C)C1COC(c2cccc3ccccc23)=N1 (stereo not drawn)
- IC50 (Protein skinhead-1): 25 µM (active)

Compound: c1ccc2oc(SCc3nc4ccccc4s3)nc2c1
- IC50 (Protein skinhead-1): 37.5 µM (active)

Compound: CCCC1(C(=O)OCC)NC(c2ccc(N(C)C)cc2)C2C(=O)N(c3ccccc3)C(=O)C21 (stereo not drawn)
- IC50 (Protein skinhead-1): > 100 µM (inactive)

Compound: CSc1nc2ccc(S(=O)(=O)NC3CCCCC3)cc2s1
- AC50 [3]: 8.57 µM (active)

Compound: CC1CCN(S(=O)(=O)c2ccc(C(=O)N3CCOCC3)cc2)CC1
- IC50 (Protein skinhead-1): > 100 µM (inactive)

Compound: CCN(C(=O)COC(=O)c1cc(-c2cccc3ccccc23)nc2ccccc12)C1CCS(=O)(=O)C1 (stereo not drawn)
- IC50 (Protein skinhead-1): > 100 µM (inactive)

Compound: O=C(CN=C(S)N(Cc1ccccc1)Cc1ccccc1F)NCCc1ccc(Cl)cc1
- EC50 [4]: 1.92 µM (active)
- EC50 [5]: > 60 µM (not active)
- AC50 [2]: 5.59 µM (active)

Compound: Brc1ccc(-c2nnc(-c3ccccc3Br)o2)cc1
- IC50 (Protein skinhead-1): > 100 µM (inactive)

Compound: Cc1ccc(N2CCN(S(=O)(=O)c3ccc4oc(=O)ccc4c3)CC2)c(C)c1
- IC50 (Protein skinhead-1): > 100 µM (inactive)

Compound: O=C(Nc1ccc(Cl)c(Cl)c1)Nc1ccon1
- EC50 [1]: 44.4 µM (active)
- EC50 (Streptokinase A): > 150 µM (not active)
- EC50 (Streptococcus): 38.7 µM (active)
- IC50 (Protein skinhead-1): > 100 µM (inactive)

Compound: CCNc1ncc2nc(-c3ccccc3)c(=O)n(C3CC3)c2n1
- AC50 (Cytochrome P450 2D6): 1.26 µM (inconclusive)

Compound: NC(=S)Nc1ccc(Oc2ccc(NC(N)=S)cc2)cc1
- AC50 (Cytochrome P450 2C19; read-out: AC50): 25.1 µM (inconclusive)
- AC50 (Cytochrome P450 2D6): 14.1 µM (inconclusive)

Compound: COc1ccc(C(C)C)cc1S(=O)(=O)n1cnc(C)c1
- IC50 (Protein skinhead-1): > 100 µM (inactive)

Compound: O=C(Nc1nc(-c2ccc(Cl)s2)cs1)c1ccccc1
- IC50 (Protein skinhead-1): 68.3 µM (inactive)

Compound: c1ccc(CCn2nnnc2CN2CCCc3ccccc32)cc1
- EC50 [6]: > 53 µM (inactive)

Compound: C[C@@]12CC[C@H]3[C@H](CC=C4C[C@@H](O)CC[C@@]43C)[C@@H]1CC[C@@H]2N(CCO)CCO
- AC50 (Cytochrome P450 2C19): inconclusive
- AC50 (Cytochrome P450 2D6): 3.98 µM (inconclusive)

Compound: CNc1nc(-c2ccoc2)nc2ccccc12
- AC50 (Cytochrome P450 2D6): 39.8 µM (inconclusive)

Compound: C#CCCCC(=S)Nc1ccccc1
- AC50 (Cytochrome P450 2C19; read-out: AC50): 39.8 µM (inconclusive)
- AC50 (Cytochrome P450 2D6): 39.8 µM (inconclusive)
- AC50 (Cytochrome P450 3A4): 25.1 µM (inconclusive)
- AC50 (Cytochrome P450 2C9): 39.8 µM (inconclusive)

Compound: O=C(CSCC(=O)OCn1nnc2ccccc2c1=O)Nc1ccc(Cl)cc1
- AC50 (Cytochrome P450 2D6): 25.1 µM (inconclusive)
- AC50 (Cytochrome P450 1A2): 25.1 µM (inconclusive)

Compound: CSc1cccc(NC(=O)C2C3C=CC4(O3)C2C(=O)N(CCN2CCOCC2)C4C(=O)NC2CCCCC2)c1 (stereo not drawn)
- IC50 (Protein skinhead-1): > 100 µM (inactive)

Compound: COc1ccc(-c2nn(-c3ccccc3)cc2C(=O)N(C)CC(=O)Nc2cccc(F)c2)cc1
- AC50 [2]: 12.9 µM (active)

Compound: CCC(C)c1ccc(NC(=O)C2CC3CCC2C3)cc1 (stereo not drawn)
- AC50 [2]: 4.53 µM (active)

Compound: CC(C(=O)O)N1C(=O)CSc2ncccc21 (stereo not drawn)
- AC50 [2]: > 195 µM (inactive)

Compound: CC(C)(C)[C@@H]1CCC(=O)N(CC[C@H](Sc2ccc(Br)cc2)c2ccccc2)CC1
- AC50 [2]: 3.18 µM (active)

Compound: O=[N+]([O-])c1ccc(O)c(C2CCCCC2)c1
- AC50 [3]: 8.09 µM (active)

Compound: CN(C(=O)C1Cc2c(-c3ccccc3Oc3ccccc3)ccnc2O1)c1ccccc1 (stereo not drawn)
- IC50 (Protein skinhead-1): > 100 µM (inactive)

Compound: O=C(NC(c1ccc(-c2ccccc2)cc1)c1cnccn1)C1CCN(CCOc2ccc(Cl)cc2Cl)CC1 (stereo not drawn)
- IC50 (Protein skinhead-1): > 100 µM (inactive)

Compound: C/C(=N\NC(N)=S)c1cc(-c2ccccc2)c(-c2ccccc2)s1
- AC50 [2]: 3.27 µM (active)

Compound: CCOC(=O)c1ccccc1N/C=C1\CCCCC1=O
- AC50 (Cytochrome P450 2D6): 35.5 µM (inconclusive)
- AC50 (Cytochrome P450 2C9): 39.8 µM (inconclusive)

Compound: O=C1NC(c2cccc([N+](=O)[O-])c2)=CCN1c1ccccc1O [ICILLIN]
- AC50 (Cytochrome P450 2D6): 20 µM (inconclusive)
- AC50 (Cytochrome P450 1A2): 31.6 µM (inconclusive)
